From the NIST ThermoML archive (doi:10.1016/j.fluid.2007.05.029)

Legend:
[1] = xn = mol fraction of the nth substance listed

CCCCC(O)CO (centres undefined) [1,2-hexanediol]
Settings | surface tension liquid-gas [mN/m]
283.15 K | 24.7
288.15 K | 24.4
293.15 K | 24.1
298.15 K | 23.8
303.15 K | 23.6
308.15 K | 23.3

CC(O)CCCCO (centres undefined) [1,5-hexanediol]
Settings | surface tension liquid-gas [mN/m]
283.15 K | 34.6
288.15 K | 34.3
293.15 K | 34.1
298.15 K | 33.9
303.15 K | 33.7
308.15 K | 33.5

CC(O)CCC(C)O (centres undefined) [2,5-hexanediol]
Settings | surface tension liquid-gas [mN/m]
283.15 K | 32.3
288.15 K | 32
293.15 K | 31.9
298.15 K | 31.6
303.15 K | 31.3
308.15 K | 31

CC(O)CCC(C)O (centres undefined) [2,5-hexanediol] + O
surface tension liquid-gas [mN/m], [1]
Settings | 283.15 K | 288.15 K | 293.15 K | 298.15 K | 303.15 K | 308.15 K
x1 = 0.001 | 68.5 | 67.9 | 67.7 | 67.2 | 66.6 | 65.9
x1 = 0.0027 | 60.2 | 59.6 | 59.1 | 58.6 | 57.9 | 57.3
x1 = 0.0037 | 56.9 | 56.3 | 55.6 | 55.2 | 54.7 | 54.2
x1 = 0.0068 | 53.5 | 52.9 | 52.3 | 51.6 | 51.2 | 50.7
x1 = 0.0088 | 51.6 | 51 | 50.3 | 49.5 | 48.6 | 48
x1 = 0.0103 | 50 | 49.4 | 49.2 | 48.7 | 48.2 | 47.8
x1 = 0.0135 | 47.9 | 47.5 | 47.2 | 46.8 | 46.3 | 45.8
x1 = 0.0168 | 46.1 | 45.7 | 45.5 | 45.2 | 44.9 | 44.6
x1 = 0.0263 | 43.4 | 43.2 | 42.7 | 42.1 | 41.6 | 41.3
x1 = 0.037 | 41.5 | 41.1 | 40.4 | 40 | 39.7 | 39.2
x1 = 0.0462 | 40.4 | 40.1 | 39.7 | 39 | 38.7 | 38.2
x1 = 0.063 | 39.1 | 38.6 | 38.1 | 37.4 | 37.1 | 36.6
x1 = 0.0808 | 38.5 | 38 | 37.5 | 37 | 36.5 | 36.2
x1 = 0.096 | 38.3 | 37.8 | 37.3 | 36.8 | 36.3 | 36
x1 = 0.1117 | 37.7 | 37.2 | 36.9 | 36.2 | 35.9 | 35.6
x1 = 1 | 32.3 | 32 | 31.9 | 31.6 | 31.3 | 31

O [water]
Settings | surface tension liquid-gas [mN/m]
283.15 K | 74.1
288.15 K | 73.4
293.15 K | 72.6
298.15 K | 71.8
303.15 K | 71
308.15 K | 70.2

O [water] + CC(O)CCC(C)O
[1], x2 = 0
Settings | surface tension liquid-gas [mN/m]
283.15 K | 74.1
288.15 K | 73.4
293.15 K | 72.6
298.15 K | 71.8
303.15 K | 71
308.15 K | 70.2

O [water] + CC(O)CCCCO
[1], x2 = 0
Settings | surface tension liquid-gas [mN/m]
283.15 K | 74.1
288.15 K | 73.4
293.15 K | 72.6
298.15 K | 71.8
303.15 K | 71
308.15 K | 70.2

O [water] + CCCCC(O)CO
[1], x2 = 0
Settings | surface tension liquid-gas [mN/m]
283.15 K | 74.1
288.15 K | 73.4
293.15 K | 72.6
298.15 K | 71.8
303.15 K | 71
308.15 K | 70.2

O [water] + OCCCCCCO
[1], x2 = 0
Settings | surface tension liquid-gas [mN/m]
283.15 K | 74.1
288.15 K | 73.4
293.15 K | 72.6
298.15 K | 71.8
303.15 K | 71
308.15 K | 70.2
